# Assay results reported in patent publication US20010014742A1, “Water-soluble prodrugs of azole compounds” (priority 1999, published 2001).
# Experiment: aqueous solubility
# Assay type: physicochemical
# Conditions: water at pH 6.8
structure (smiles),measurement,value
"C[C@@H](c1nc(-c2ccc(C#N)cc2)cs1)C(O)(Cn1cncn1)c1ccc(F)cc1F (stereo partly drawn) [the above triazole compound, (2R,3R)-3-[4-(4-cyanophenyl)thiazol-2-yl]-2-(2,4-difluorophenyl)-1-(1H,1,2,4-triazol-1-yl)-butan-2-ol]",solubility,0.6 µg/mL
